Results: patent US20250302815A1, “PROTEIN TYROSINE PHOSPHATASE TARGETING LIGANDS” (CALICO LIFE SCIENCES LLC, priority 2021, published 2025)

Columns and labels:
PTPN2 (B16F10.4 cells) = target: T1, PTPN2 (B16F10.4 cells) (Mus musculus, UniProt Q06180); test: HiBiT Degradation B16F10.4 PTPN2; assay type: cell-based; conditions: 24.0 hours
T1 construct: HiBiT; host or cells: B16F10.4
T1 sequence (Q06180 1-406): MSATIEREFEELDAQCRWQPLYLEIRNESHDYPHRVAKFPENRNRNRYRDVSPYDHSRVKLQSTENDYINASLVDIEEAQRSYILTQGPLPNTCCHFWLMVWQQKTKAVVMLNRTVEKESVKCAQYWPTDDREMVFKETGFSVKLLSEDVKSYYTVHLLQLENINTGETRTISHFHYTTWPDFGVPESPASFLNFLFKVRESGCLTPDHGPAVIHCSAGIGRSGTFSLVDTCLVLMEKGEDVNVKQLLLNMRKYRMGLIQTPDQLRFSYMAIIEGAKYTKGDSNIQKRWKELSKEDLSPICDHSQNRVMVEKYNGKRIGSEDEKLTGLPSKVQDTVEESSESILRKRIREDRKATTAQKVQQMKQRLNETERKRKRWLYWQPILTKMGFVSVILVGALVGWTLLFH

[1] = target: T2, PTPN2 (HiBIT-PTPN2 in 293T.109 cells) (Homo sapiens, UniProt P17706); test: HiBiT Degradation 293T.109 PTPN2 (Nano-Glo HiBiT Lytic Assay); assay type: cell-based; conditions: 24.0 hours
T2 construct: expressed in transfected cells; host or cells: 293T.109 (293T WT from ATCC)
T2 sequence (P17706 1-415): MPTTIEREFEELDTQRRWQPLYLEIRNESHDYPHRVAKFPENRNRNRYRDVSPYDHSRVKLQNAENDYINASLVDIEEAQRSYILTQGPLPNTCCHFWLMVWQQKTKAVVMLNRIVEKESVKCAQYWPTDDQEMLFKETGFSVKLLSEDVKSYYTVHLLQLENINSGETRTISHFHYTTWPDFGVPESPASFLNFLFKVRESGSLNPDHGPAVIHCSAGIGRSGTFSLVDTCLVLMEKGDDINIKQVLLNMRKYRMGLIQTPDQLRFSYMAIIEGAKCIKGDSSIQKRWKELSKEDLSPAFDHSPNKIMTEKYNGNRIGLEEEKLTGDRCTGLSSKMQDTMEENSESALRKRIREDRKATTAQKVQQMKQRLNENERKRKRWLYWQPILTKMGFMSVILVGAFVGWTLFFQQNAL
Summary of the method: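 Degradation read-out: lytic HiBiT luminescence after 24 h treatment (37 °C, 5% CO2) of 5000 293T cells per well expressing HiBiT-fused PTPN2 from an N-terminal tag. Dosing was 11 points, half-log steps down from 10 μM, in duplicate; vehicle-treated and no-reagent wells served as controls.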

DC50 (PTPN2 (B16F10.4 cells))	DC50 [1]	Compound
≥ 1000 nM	≥ 1000 nM	CC1(C)C[C@@H](Nc2cccc(-c3sc(C(=O)O)c(OCC(=O)O)c3Cl)c2)CCN1S(=O)(=O)Cc1cccc(NC(=O)CCN2CCC(Oc3cccc4c3CN(C3CCC(=O)NC3=O)C4=O)CC2)c1 (some centres unmarked) [Example 56]
50 to 200 nM	50 to 200 nM	Cn1c(=O)n(C2CCC(=O)NC2=O)c2ccc3c(c21)CCCN3C1CCN(C(=O)Nc2cccc(CS(=O)(=O)N3CC[C@H](Nc4cccc(-c5sc(C(=O)O)c(OCC(=O)O)c5Cl)c4)CC3(C)C)c2)CC1 (stereo partly drawn) [Example 222, 3-(carboxymethoxy)-4-chloro-5-[3-[[(4S)-1-[[3-[[4-[3-(2,6-dioxo-3-piperidyl)-1-methyl-2-oxo-8,9-dihydro-7H-imidazo[4,5-f]quinolin-6-yl]piperidine-1-carbonyl]amino]phenyl]methylsulfonyl]-2,2-dimethyl-4-piperidyl]amino]phenyl]thiophene-2-carboxylic acid]
200 to 1000 nM	200 to 1000 nM	CC1(C)C[C@@H](Nc2cccc(-c3sc(C(=O)O)c(OCC(=O)O)c3Cl)c2)CCN1S(=O)(=O)Cc1cccc(NC(=O)N2CCC(c3ccc4c(c3)CCN4C3CCC(=O)NC3=O)CC2)c1 (stereo partly drawn) [Example 94, 3-(carboxymethoxy)-4-chloro-5-[3-[[(4S)-1-[[3-[[4-[1-(2,6-dioxo-3-piperidyl)indolin-5-yl]piperidine-1-carbonyl]amino]phenyl]methylsulfonyl]-2,2-dimethyl-4-piperidyl]amino]phenyl]thiophene-2-carboxylic acid]
50 to 200 nM	< 50 nM	Cn1c(=O)n(C2CCC(=O)NC2=O)c2ccc(N3CC4(CN(C(=O)Nc5cccc(CS(=O)(=O)N6CC[C@H](Nc7cccc(-c8sc(C(=O)O)c(OCC(=O)O)c8Cl)c7)CC6(C)C)c5)C4)C3)cc21 (stereo partly drawn) [Example 140, 3-(carboxymethoxy)-4-chloro-5-[3-[[(4S)-1-[[3-[[6-[1-(2,6-dioxo-3-piperidyl)-3-methyl-2-oxo-benzimidazol-5-yl]-2,6-diazaspiro[3.3]heptane-2-carbonyl]amino]phenyl]methylsulfonyl]-2,2-dimethyl-4-piperidyl]amino]phenyl]thiophene-2-carboxylic acid]
50 to 200 nM	200 to 1000 nM	Cn1c(=O)n(C2CCC(=O)NC2=O)c2ccc(C3CCN(C(=O)Nc4cccc(CS(=O)(=O)N5CC[C@@H](Nc6cccc(-c7sc(C(=O)O)c(OCC(=O)O)c7Cl)c6)CC56CC6)c4)CC3)cc21 (stereo partly drawn) [Example 230, 3-(carboxymethoxy)-4-chloro-5-(3-(((7R)-4-((3-(4-(1-(2,6-dioxopiperidin-3-yl)-3-methyl-2-oxo-2,3-dihydro-1H-benzo[d]imidazol-5-yl)piperidine-1-carboxamido)benzyl)sulfonyl)-4-azaspiro[2.5]octan-7-yl)amino)phenyl)thiophene-2-carboxylic acid]
< 50 nM	< 50 nM	Cn1c(=O)n([C@@H]2CCC(=O)NC2=O)c2ccc(C3CCN(C(=O)Nc4cccc(CS(=O)(=O)N5CC[C@H](Nc6cccc(-c7sc(C(=O)O)c(OCC(=O)O)c7Cl)c6)CC5(C)C)c4)CC3)cc21 (single isomer, unassigned) [Example 235]
< 50 nM	50 to 200 nM	CC1(C)C[C@@H](Nc2cccc(-c3sc(C(=O)O)c(OCC(=O)O)c3Cl)c2)CCN1S(=O)(=O)Cc1cccc(NC(=O)N2CCC(Cc3ccc4c5c(cccc35)C(=O)N4C3CCC(=O)NC3=O)CC2)c1 (stereo partly drawn) [Example 158, 3-(carboxymethoxy)-4-chloro-5-(3-(((4S)-1-((3-(4-((1-(2,6-dioxopiperidin-3-yl)-2-oxo-1,2-dihydrobenzo[cd]indol-6-yl)methyl)piperidine-1-carboxamido)benzyl)sulfonyl)-2,2-dimethylpiperidin-4-yl)amino)phenyl)thiophene-2-carboxylic acid]
200 to 1000 nM	50 to 200 nM	CC1(C)C[C@@H](Nc2cccc(-c3sc(C(=O)O)c(OCC(=O)O)c3Cl)c2)CCN1S(=O)(=O)Cc1cccc(NC(=O)N2CCN(C(=O)CNc3cccc4c3CN(C3CCC(=O)NC3=O)C4=O)CC2)c1 (stereo partly drawn) [Example 62, 3-(carboxymethoxy)-4-chloro-5-(3-(((4S)-1-((3-(4-((2-(2,6-dioxopiperidin-3-yl)-1-oxoisoindolin-4-yl)glycyl)piperazine-1-carboxamido)benzyl)sulfonyl)-2,2-dimethylpiperidin-4-yl)amino)phenyl)thiophene-2-carboxylic acid]

Continued, compound first:

Compound	DC50 (PTPN2 (B16F10.4 cells))	DC50 [1]
CC1(C)C[C@@H](Nc2cccc(-c3sc(C(=O)O)c(OCC(=O)O)c3Cl)c2)CCN1S(=O)(=O)Cc1cccc(NC(=O)[C@H]2CC[C@H](C(=O)Nc3cccc4c3CN(C3CCC(=O)NC3=O)C4=O)CC2)c1 (stereo partly drawn) [Example 86, 3-(carboxymethoxy)-4-chloro-5-(3-(((4S)-1-((3-((1r,4R)-4-((2-(2,6-dioxopiperidin-3-yl)-1-oxoisoindolin-4-yl)carbamoyl)cyclohexane-1-carboxamido)benzyl)sulfonyl)-2,2-dimethylpiperidin-4-yl)amino)phenyl)thiophene-2-carboxylic acid]	200 to 1000 nM	50 to 200 nM
CC1(C)C[C@@H](Nc2cccc(-c3sc(C(=O)O)c(OCC(=O)O)c3Cl)c2)CCN1S(=O)(=O)Cc1cccc(NC(=O)C2C[C@@H]3CN(C(=O)CNc4cccc5c4CN(C4CCC(=O)NC4=O)C5=O)C[C@@H]3C2)c1 (stereo partly drawn) [Example 97, 5-[3-[[(4S)-1-[[3-[[(3aR,6aS)-2-[2-[[2-(2,6-dioxo-3-piperidyl)-1-oxo-isoindolin-4-yl]amino]acetyl]-3,3a,4,5,6,6a-hexahydro-1H-cyclopenta[c]pyrrole-S-carbonyl]amino]phenyl]methylsulfonyl]-2,2-dimethyl-4-piperidyl]amino]phenyl]-3-(carboxymethoxy)-4-chloro-thiophene-2-carboxylic acid]	≥ 1000 nM	200 to 1000 nM
CC1(C)C[C@@H](Nc2cccc(-c3sc(C(=O)O)c(OCC(=O)O)c3Cl)c2)CCN1S(=O)(=O)Cc1cccc(NC(=O)OC2CCN(C(=O)CNc3cccc4c3CN(C3CCC(=O)NC3=O)C4=O)CC2)c1 (some centres unmarked) [Example 85]	200 to 1000 nM	50 to 200 nM
Cn1nc(C2CCC(=O)NC2=O)c2ccc(CCC(=O)Nc3cccc(CS(=O)(=O)N4CCC(Nc5cccc(-c6sc(C(=O)O)c(OCC(=O)O)c6Cl)c5)CC4)c3)cc21 (centres unmarked) [Example 157, 3-(carboxymethoxy)-4-chloro-5-[3-[[1-[[3-[3-[3-(2,6-dioxo-3-piperidyl)-1-methyl-indazol-6-yl]propanoylamino]phenyl]methylsulfonyl]-4-piperidyl]amino]phenyl]thiophene-2-carboxylic acid]	200 to 1000 nM	200 to 1000 nM
CC1(C)C[C@@H](Nc2cccc(-c3sc(C(=O)O)c(OCC(=O)O)c3Cl)c2)CCN1S(=O)(=O)Cc1cccc(NC(=O)C2CCN(c3ccc4c5c(cccc35)N(C3CCC(=O)NC3=O)C4=O)CC2)c1 (some centres unmarked) [Example 216]	50 to 200 nM	< 50 nM
CC1(C)C[C@@H](Nc2cccc(-c3sc(C(=O)O)c(OCC(=O)O)c3Cl)c2)CCN1S(=O)(=O)Cc1cccc(NC(=O)[C@H]2[C@@H]3CN(C(=O)COc4cccc5c4CN(C4CCC(=O)NC4=O)C5=O)C[C@@H]32)c1 (some centres unmarked) [Example 101]	50 to 200 nM	50 to 200 nM
CN(C(=O)C1CCN(C(=O)CNc2cccc3c2CN(C2CCC(=O)NC2=O)C3=O)CC1)c1cccc(CS(=O)(=O)N2CC[C@@H](Nc3cccc(-c4sc(C(=O)O)c(OCC(=O)O)c4Cl)c3)CC2(C)C)c1 (stereo partly drawn) [Example 66, 3-(carboxymethoxy)-4-chloro-5-(3-(((4R)-1-((3-(1-((2-(2,6-dioxopiperidin-3-yl)-1-oxoisoindolin-4-yl)glycyl)-N-methylpiperidine-4-carboxamido)benzyl)sulfonyl)-2,2-dimethylpiperidin-4-yl)amino)phenyl)thiophene-2-carboxylic acid]	≥ 1000 nM	200 to 1000 nM
O=C(O)COc1c(C(=O)O)sc(-c2cccc(NC3CCN(S(=O)(=O)Cc4cccc(NC(=O)N5CCC(c6ccc7c8c(cccc68)C(=O)N7C6CCC(=O)NC6=O)CC5)c4)CC3)c2)c1Cl (centres unmarked) [Example 173, 3-(carboxymethoxy)-4-chloro-5-[3-[[1-[[3-[[4-[1-(2,6-dioxo-3-piperidyl)-2-oxo-benzo[cd]indol-6-yl]piperidine-1-carbonyl]amino]phenyl]methylsulfonyl]-4-piperidyl]amino]phenyl]thiophene-2-carboxylic acid]	< 50 nM	50 to 200 nM
